# Species: Rattus norvegicus
# Assay: Open TG-GATES - Regimen: Single
# Assay type: toxicity, organism-based, Sprague-Dawley
# Set-up: regimen Single, gender Male, age 6 weeks
# Conditions: in vivo, po, 6 mg/kg, route gavage, dose level Low; for APTT / Bas / Eos / Fbg / Hb / Ht / Lym / MCH / MCHC / MCV / Mono / Neu / PT / Plat / RBC / Ret / WBC: tissue Blood; for LIVER: tissue Liver; for A/G / ALP / ALT / AST / BUN / CRE / Ca / Cl / DBIL / GLC / IP / K / LDH / Na / PL / RALB / TBIL / TC / TG / TP / gamma-GTP: tissue Plasma
structure (smiles),measurement,setting,value
"O=[N+]([O-])c1ccc(O)c([N+](=O)[O-])c1 [2,4-DINITROPHENOL]",TERMINAL_BW,3 h,204.4 g
same,APTT,3 h,17 s
same,Bas,3 h,0%
same,Eos,3 h,0.8%
same,Fbg,3 h,232 mg/dL
same,Hb,3 h,12.9 g/dL
same,Ht,3 h,38.5%
same,Lym,3 h,74.8%
same,MCH,3 h,21.6 pg
same,MCHC,3 h,33.5%
same,MCV,3 h,64.6 fL
same,Mono,3 h,9.6%
same,Neu,3 h,14.8%
same,PT,3 h,12.2 s
same,Plat,3 h,124.6 x10_4/uL
same,RBC,3 h,595.6 x10_4/ul
same,Ret,3 h,9.1%
same,WBC,3 h,105.2 x10_2/uL
same,LIVER,3 h,9.7 g
same,A/G,3 h,2.4
same,ALP,3 h,1437.4 IU/L
same,ALT,3 h,38 IU/L
same,AST,3 h,69 IU/L
same,BUN,3 h,11 mg/dL
same,CRE,3 h,0.4 mg/dL
same,Ca,3 h,11.2 mg/dL
same,Cl,3 h,103.2 meq/L
same,DBIL,3 h,0.014 mg/dL
same,GLC,3 h,185.2 mg/dL
same,IP,3 h,10.4 mg/dL
same,K,3 h,4.3 meq/L
same,LDH,3 h,110.2 IU/L
same,Na,3 h,138.4 meq/L
same,PL,3 h,139.8 mg/dL
same,RALB,3 h,3.8 g/dL
same,TBIL,3 h,0.046 mg/dL
same,TC,3 h,79 mg/dL
same,TG,3 h,57 mg/dL
same,TP,3 h,5.4 g/dL
same,gamma-GTP,3 h,0 IU/L
same,TERMINAL_BW,6 h,202.3 g
same,APTT,6 h,16.3 s
same,Bas,6 h,0%
same,Eos,6 h,1%
same,Fbg,6 h,252.2 mg/dL
same,Hb,6 h,13 g/dL
same,Ht,6 h,38.9%
same,Lym,6 h,73%
same,MCH,6 h,21.3 pg
same,MCHC,6 h,33.4%
same,MCV,6 h,63.9 fL
same,Mono,6 h,10%
same,Neu,6 h,16.4%
same,PT,6 h,12.1 s
same,Plat,6 h,124.2 x10_4/uL
same,RBC,6 h,608.6 x10_4/ul
same,Ret,6 h,9.3%
same,WBC,6 h,116.8 x10_2/uL
same,LIVER,6 h,9.2 g
same,A/G,6 h,2.4
same,ALP,6 h,1588.6 IU/L
same,ALT,6 h,35.4 IU/L
same,AST,6 h,69.2 IU/L
same,BUN,6 h,10.6 mg/dL
same,CRE,6 h,0.4 mg/dL
same,Ca,6 h,10.9 mg/dL
same,Cl,6 h,105.2 meq/L
same,DBIL,6 h,0.012 mg/dL
same,GLC,6 h,198 mg/dL
same,IP,6 h,9.3 mg/dL
same,K,6 h,4.4 meq/L
same,LDH,6 h,135.6 IU/L
same,Na,6 h,139 meq/L
same,PL,6 h,154 mg/dL
same,RALB,6 h,3.9 g/dL
same,TBIL,6 h,0.05 mg/dL
same,TC,6 h,92.4 mg/dL
same,TG,6 h,61.4 mg/dL
same,TP,6 h,5.6 g/dL
same,gamma-GTP,6 h,0 IU/L
same,TERMINAL_BW,9 h,199.2 g
same,APTT,9 h,15.6 s
same,Bas,9 h,0%
same,Eos,9 h,1%
same,Fbg,9 h,244.6 mg/dL
same,Hb,9 h,12.9 g/dL
same,Ht,9 h,38.5%
same,Lym,9 h,72%
same,MCH,9 h,21.7 pg
same,MCHC,9 h,33.5%
same,MCV,9 h,64.7 fL
same,Mono,9 h,12.8%
same,Neu,9 h,14.4%
same,PT,9 h,11.9 s
same,Plat,9 h,125.6 x10_4/uL
same,RBC,9 h,595 x10_4/ul
same,Ret,9 h,8.8%
same,WBC,9 h,87.8 x10_2/uL
same,LIVER,9 h,8.6 g
same,A/G,9 h,2.5
same,ALP,9 h,1398.6 IU/L
same,ALT,9 h,31.4 IU/L
same,AST,9 h,66.2 IU/L
same,BUN,9 h,11.4 mg/dL
same,CRE,9 h,0.4 mg/dL
same,Ca,9 h,11 mg/dL
same,Cl,9 h,104.4 meq/L
same,DBIL,9 h,0.01 mg/dL
same,GLC,9 h,191.4 mg/dL
same,IP,9 h,10.7 mg/dL
same,K,9 h,4.9 meq/L
same,LDH,9 h,145 IU/L
same,Na,9 h,138.4 meq/L
same,PL,9 h,157.4 mg/dL
same,RALB,9 h,3.9 g/dL
same,TBIL,9 h,0.046 mg/dL
same,TC,9 h,93.2 mg/dL
same,TG,9 h,57.6 mg/dL
same,TP,9 h,5.5 g/dL
same,gamma-GTP,9 h,0.2 IU/L
same,TERMINAL_BW,24 h,220.4 g
same,APTT,24 h,15.9 s
same,Bas,24 h,0%
same,Eos,24 h,1.4%
same,Fbg,24 h,237.4 mg/dL
same,Hb,24 h,12.8 g/dL
same,Ht,24 h,38.4%
same,Lym,24 h,72.8%
same,MCH,24 h,21.6 pg
same,MCHC,24 h,33.4%
same,MCV,24 h,64.8 fL
same,Mono,24 h,10.4%
same,Neu,24 h,15.6%
same,PT,24 h,11.6 s
same,Plat,24 h,131.6 x10_4/uL
same,RBC,24 h,593.2 x10_4/ul
same,Ret,24 h,7.8%
same,WBC,24 h,107.2 x10_2/uL
same,LIVER,24 h,11.3 g
same,A/G,24 h,2.5
same,ALP,24 h,1262 IU/L
same,ALT,24 h,38.8 IU/L
same,AST,24 h,64.8 IU/L
same,BUN,24 h,14.8 mg/dL
same,CRE,24 h,0.4 mg/dL
same,Ca,24 h,11.3 mg/dL
same,Cl,24 h,103.2 meq/L
same,DBIL,24 h,0.012 mg/dL
same,GLC,24 h,193.6 mg/dL
same,IP,24 h,7.3 mg/dL
same,K,24 h,4.6 meq/L
same,LDH,24 h,105 IU/L
same,Na,24 h,139.4 meq/L
same,PL,24 h,159.6 mg/dL
same,RALB,24 h,4 g/dL
same,TBIL,24 h,0.034 mg/dL
same,TC,24 h,90 mg/dL
same,TG,24 h,116 mg/dL
same,TP,24 h,5.6 g/dL
same,gamma-GTP,24 h,0.4 IU/L

# Reference: ChEMBL document CHEMBL3885861, “Open TG-GATES”
